Assay [1] has as its system COS-7 cells (pCIneo, no enzyme). The assay is described as follows: Esterase assay (o-NPA), COS-7 cells transfected with pCIneo. The format is biochemical, monkey. The settings on record: plasmid pCIneo. Here is the method:
(§1) Esterase activity was determined in whole tissue sonicates using a spectrophotometric assay with o-nitrophenol acetate as a substrate (Potter et al. 1998 Cancer Res. 52:2646-2651; Beaufay et al. 1974 J. Cell Biol. 61:188-200). Protein concentrations were calculated using BioRad protein assay reagent (Hercules, Calif.) with bovine serum albumin as a standard. Enzyme activities were calculated as μmoles of o-nitrophenol produced per minute per mg of total protein.

A further assay concerns the target T1, rabbit liver CE (Oryctolagus cuniculus, UniProt P12337).
T1 sequence (P12337 19-565): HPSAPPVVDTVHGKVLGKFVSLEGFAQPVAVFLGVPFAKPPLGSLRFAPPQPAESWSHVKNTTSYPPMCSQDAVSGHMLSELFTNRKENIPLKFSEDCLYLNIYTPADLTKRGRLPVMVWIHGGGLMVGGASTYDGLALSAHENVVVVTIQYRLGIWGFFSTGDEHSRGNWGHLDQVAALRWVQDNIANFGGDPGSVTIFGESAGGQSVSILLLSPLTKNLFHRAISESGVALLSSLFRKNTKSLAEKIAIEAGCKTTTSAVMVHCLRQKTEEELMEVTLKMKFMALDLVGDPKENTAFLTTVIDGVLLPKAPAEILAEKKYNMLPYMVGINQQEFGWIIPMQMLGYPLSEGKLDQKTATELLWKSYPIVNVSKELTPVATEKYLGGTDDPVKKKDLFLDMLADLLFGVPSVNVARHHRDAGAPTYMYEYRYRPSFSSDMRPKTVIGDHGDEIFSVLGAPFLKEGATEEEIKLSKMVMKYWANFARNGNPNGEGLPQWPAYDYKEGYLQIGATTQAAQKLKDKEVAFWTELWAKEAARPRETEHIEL
Kind of assay: Esterase assay (o-NPA), COS-7 cells expressing rabbit CE. Details: To amplify a full length rabbit CE cDNA, oligonucleotide primers RabNTERM; expressed in transfected cells; host or cells: COS-7 (sonicates of transiently transfected cells). Particulars: plasmid pCIRAB, enzyme rabbit. The format is biochemical. On the procedure:
as §1

The target in assay [2] is T2, human intestinal CE (hiCE) (Homo sapiens, UniProt O00748).
T2 construct: expressed in transfected cells; host or cells: COS-7 (sonicates of transiently transfected cells)
T2 sequence (O00748 27-559): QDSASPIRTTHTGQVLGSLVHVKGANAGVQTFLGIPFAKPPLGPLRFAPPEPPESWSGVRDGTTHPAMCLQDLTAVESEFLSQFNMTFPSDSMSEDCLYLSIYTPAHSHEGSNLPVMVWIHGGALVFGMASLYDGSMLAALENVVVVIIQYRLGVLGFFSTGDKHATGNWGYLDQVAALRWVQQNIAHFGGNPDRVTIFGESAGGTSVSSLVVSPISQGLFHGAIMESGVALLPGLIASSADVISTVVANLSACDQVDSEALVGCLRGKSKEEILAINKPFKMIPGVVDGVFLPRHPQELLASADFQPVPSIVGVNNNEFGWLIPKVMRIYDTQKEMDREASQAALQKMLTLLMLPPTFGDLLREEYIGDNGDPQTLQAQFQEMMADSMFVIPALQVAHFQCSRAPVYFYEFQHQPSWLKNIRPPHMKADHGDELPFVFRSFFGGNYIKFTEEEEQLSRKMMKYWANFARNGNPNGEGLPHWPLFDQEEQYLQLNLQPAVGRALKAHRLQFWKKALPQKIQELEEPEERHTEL
Kind of assay: Esterase assay (o-NPA), COS-7 cells expressing hiCE. The assay is classed as biochemical. The settings on record: plasmid pCIhiCE, media. Here is the method: as §1

A further assay has as its target T3, human liver CE (hCE1) (Homo sapiens, UniProt P23141).
T3 construct: expressed in transfected cells; host or cells: COS-7 (sonicates of transiently transfected cells)
The assay is described as follows: Esterase assay (o-NPA), COS-7 cells expressing hCE1. The assay is classed as biochemical. The settings on record: plasmid pCIHUMCAR, enzyme hCE1. On the procedure:
as §1

In assay [3] the test system is CE activity in human biopsy whole tissue sonicates. The assay is described as follows: Esterase assay (o-NPA conversion) with human biopsy extracts. The assay is classed as biochemical. Here is the method:
Using human intestinal mucosal biopsy tissue, the conversion of o-NPA to nitrophenol by whole tissue sonicates was monitored. CE activity was identified in both small intestine and colon samples, with activity levels in small intestine being much less than the levels seen with human liver.
Biopsies of human intestine were obtained from the Cooperative Human Tissue Network (Birmingham, Ala.). The samples were ground under liquid nitrogen and the resulting powder sonicated in 50 mM Hepes, pH 7.4, on ice.
as §1

Each structure is given as a SMILES string. “And” between values parts separate entries of the source, which are not always exact repeats. Equal entries are not always repeated.

T3 sequence (P23141 18-567): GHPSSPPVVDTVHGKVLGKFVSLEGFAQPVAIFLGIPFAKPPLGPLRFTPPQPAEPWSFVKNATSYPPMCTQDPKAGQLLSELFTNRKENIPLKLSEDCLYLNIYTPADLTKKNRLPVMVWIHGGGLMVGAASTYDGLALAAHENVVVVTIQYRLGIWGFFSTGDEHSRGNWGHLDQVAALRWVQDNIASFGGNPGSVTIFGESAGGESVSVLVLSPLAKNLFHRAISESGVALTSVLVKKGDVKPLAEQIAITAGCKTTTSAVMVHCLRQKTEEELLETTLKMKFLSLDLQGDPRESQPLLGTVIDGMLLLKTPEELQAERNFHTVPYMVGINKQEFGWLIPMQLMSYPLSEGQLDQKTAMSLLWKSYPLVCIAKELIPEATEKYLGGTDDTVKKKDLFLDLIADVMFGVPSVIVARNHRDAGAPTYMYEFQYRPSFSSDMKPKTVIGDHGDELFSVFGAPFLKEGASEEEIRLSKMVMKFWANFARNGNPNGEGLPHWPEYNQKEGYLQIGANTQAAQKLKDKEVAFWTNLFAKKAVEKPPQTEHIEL

Consider `CC(=O)Oc1ccccc1[N+](=O)[O-]` [o-NPA, o-nitrophenyl acetate], for which the “o-NPA Conversion” value in assay [1] (enzyme none) is 6.7 ± 0.15 µmol/min/mg; in assay [1] (media), 13.3 ± 2.7 µmol/min/mg; on rabbit liver CE it was 2755.5 ± 271.2 µmol/min/mg; in assay [2] it was 30.9 ± 2.8 µmol/min/mg; on human liver CE (hCE1), 4780.3 ± 279.8 µmol/min/mg; in assay [3] (human colon biopsy extract), 46.5 ± 1.2 µmol/min/mg and 86.3 ± 5.2 µmol/min/mg and 75.9 ± 2.6 µmol/min/mg. The “o-NPA Conversion” value in assay [3] (human small intestine biopsy extract) is 113.0 ± 9.2 µmol/min/mg and 67.6 ± 4.1 µmol/min/mg and 61.0 ± 2.0 µmol/min/mg.

The values are drawn from patent publication US7452717B2, “Compositions and methods for sensitizing and inhibiting growth of human tumor cells” (St. Jude Children's Research Hospital, priority 1998, dated 2008).
